One assay deals with ruminal microorganisms. Briefly: dual-flow continuous culture fermenters simulating rumen fermentation (Example 2). The class given is cell-based, Holstein dairy cows. As to conditions: NPN 0.51 wt. % urea or 0.55 wt. % UB of diet DM. Here is the method:
In this example, an in vitro assay was performed using dual-flow continuous culture fermenters, aiming to simulate rumen fermentation.
Eight 1320 ml dual-flow continuous culture fermenters were used in two replicated periods. Each period consisted out of 5 days for adaptation of the ruminal fluid to the treatments and 3 days for sampling. On the first day of each period, all fermenters were inoculated with undiluted ruminal fluid filtered through two layers of cheesecloth to remove the feed particles. The fermentation conditions were constant, i.e. • a temperature of 39° C., • a pH of 6.4±0.05 by infusion of 3 N HCl or 5 N NaOH, • anaerobiosis with continued infusion of N2 gas at a rate of 40 ml/min, and • continued infusion of artificial saliva to obtain liquid and solid dilution rates of 10%/h and 5%/h, respectively.
The fermenters were fed 95 grams/day of dry matter of a diet formulated to meet or exceed current nutrients recommendations for lactating dairy cows, i.e. • 166 g/kg crude protein (CP), • 323 g/kg neutral detergent fiber (NDF), and • 201 g/kg acid detergent fiber (ADF),
And were fed in three daily administrations, i.e. at 7, 15 and 23 o'clock with a forage: concentrate diet in a range of 53:47.
Ruminal fluid was taken from two Holstein dairy cows fitted with ruminal cannulas fed with a 60:40 forage:concentrate diet with alfalfa and cracked grain (11 kg dry matter/cow/day). The afternoon before the ruminal extraction, the ruminant animals were not fed.
The NPN-dietary treatments were as follows: • Control: basal diet to which 0.51 wt. % urea was added, with wt. % on dry matter basis, • Diet: basal diet to which 0.55 wt. % of the mixture according to the present disclosure, with composition as in example 1, was added, with wt. % on dry matter basis.
On the second day of sampling, 4 ml of filtered fermenter fluid was taken 2 hours after the morning feeding to determine VFA-concentrations.
During sampling days, the collection vessels were maintained at 4° C. to prevent microbial activity. Solid and liquid effluents from 3 sampling days were composited and mixed within the fermenter and homogenized. Subsamples were taken for the analyses of the volatile fatty acids (VFA). The remainder of the sample was lyophilized (freeze drying) and the dry samples were analyzed for DM, ash, N and purines to calculate bacterial nitrogen and organic matter content (OM).
Bacterial cells were obtained from the fermenter flasks the last day of each experimental period. Solid and liquid associated bacteria were isolated using a combination several detachment procedures selected to obtain the maximum detachment without affecting the cell integrity. The bacterial cells were lyophilized and the dry samples were analyzed for dry matter (DM), ash, N and purines to calculate bacterial nitrogen.
Effluent dry matter (DM) was determined by lyophilizing 300 ml aliquots in triplicate. The DM content of the diets and bacterial samples were determined by drying samples for 24 hours in an 103° C. forced air oven (see AOAC, 1990; method 950.01).
Dry samples of diets, effluents and bacteria were ashed overnight at 550° C. in a muffle furnace (see AOAC, 1990, method 976.05) and organic matter (OM) was determined by difference. Total N of diets, effluents and bacterial samples were determined by a Kjeldhal method (AOAC, 1990; method 976.05). Sample crude protein (CP) was calculated as N×6.25. Effluent CP was determined in liquid samples. Crude protein degradation was calculated as the difference between CP in the diet minus CP in the effluent and expressed as wt. % of DM. The EMPS was determined by dividing bacterial N by fermented organic matter.
The fiber components of the diets and the effluents were analyzed sequentially using a thermostable alpha-amylase and sodium sulfite and expressed without residual ash.
The samples for the VFA-analysis were prepared as described by Jouany, J. P., and J. Senaud. […]

Assay [1] in a line: animal performance of steers with NPN supplementation (Example 3). The class given is in vivo, crossbred yearling steers. An excerpt:
A total of 72 crossbred yearling steers [303 kg±29 kg initial body weight (BW) were stratified by body weight (BW) and randomly allocated to three treatments. All steers consumed a basal diet of corn silage, cotton-gin trash, and a premix of vitamins and minerals.
The steers were housed in pens (8 steers/pen, 3 pens/treatment). The steers were supplemented with two different NPN-sources on an isonitrogenous basis, considering as reference the N provided by urea when included at 1 wt. % of the diet in dry matter (DM) basis.
In Table 5, the composition of the basal diet supplemented with two different types of NPN, i.e. urea (Urea) (46% N) and a mixture of urea and biuret according to the present disclosure (UB), with composition as in example 1 (41% N) is shown.
The gain to feed ratio (G:F) was computed as the ratio of the average daily gain (ADG) to daily dry matter intake (DMI). The feed intake was recorded daily. The individual intake was determined via the GrowSafe® intake monitoring system. In cattle management, GrowSafe Systems is a commonly used tool to closely monitor individual animal feeding data using radio frequency identification (RFID) tag technology. The animals are equipped with a unique RFID tag that is read by the feed bunks each time the animal lowers its head into the bunk to consume feed. Average daily weight gain (ADG) and feed efficiency were calculated during the performance evaluation. The ADG was determined by the difference between the final BW and the initial BW divided by the number of days of the performance evaluation (56 days). The initial BW was calculated as the average unshrunk BW of […] on days 16 and 17. The final BW was the average unshrunk BW measured on days 72 and 73. The unshrunk BW was obtained every 14 days.

Assay in assay [2]: as above
The assay is classed as in vivo, crossbred yearling steers. This is another data set of the same source.

Regarding `NC(N)=O` [Urea, urea], in the assay with ruminal microorganisms, the “Acetate to propionate ratio” value was 3.5, the CP degradation was 47.7 % of dry matter, the EMPS was 35.7 g bacterial N/kg of fermented organic matter and the “True digestibility DM” value is 53.53 wt. % of DM. Further, in the assay with ruminal microorganisms, the “True digestibility OM” value is 52.95 wt. % of DM, the “VFA Acetate” value is 62.92 and the “VFA Propionate” value was 18.18. Moreover, in assay [1] (days 0-14), the DMI worked out at 6.82 kg/day and the “G:F” value is reported as 0.10 kg/kg. Also, in assay [1] (days 0-28), the DMI is 7.03 kg/day and the “G:F” value is on record as 0.11 kg/kg. In addition, in assay [1] (days 0-42), the DMI amounted to 7.24 kg/day and the “G:F” value is given as 0.14 kg/kg. In assay [1] (days 0-56), the ADG stood at 1.01 kg, the DMI is reported as 7.29 kg/day and the “G:F” value stood at 0.14 kg/kg. In addition, in assay [1] (steers), the “DMI (% of BW)” value is 2.31 % of BW and the NEg is listed as 0.55 Mcal/kg of DM. Also, the “Initial BW” value in assay [1] (steers, baseline, NPN 1.00 wt. % urea or 1.12 wt. % UB of diet DM) was found to be 288.69 kg. Further, the “Final BW” value in assay [1] (steers, end of 56 days performance evaluation) is 343.69 kg. Also, the ADG in assay [2] (days 0-14) is reported as 0.78 kg. The ADG in assay [2] (days 0-28) was found to be 0.81 kg. Besides, in assay [2] (days 0-42), the ADG was found to be 1.02 kg.

These data come from patent US20250161245A1, “A MIXTURE OF UREA, BIURET AND N-CONTAINING BY-PRODUCTS CREATED DURING BIURET PRODUCTION AS A DIETARY NON-PROTEIN NITROGEN-SOURCE FOR RUMINANTS AND USES THEREOF” (Yara International ASA, priority 2022, published 2025).
